The text below walks through data of US4147869A, “3,4-Dihydrocarbostyril derivatives and process for preparing the same” (Otsuka Pharmaceutical Co., Ltd., priority 1976, dated 1979).

Where a name gives a salt, the structure may show the parent alone. Read-outs that look alike come from different tables or passages of the source.

The test system of one data set is β-adrenoreceptor. Briefly: β-adrenergic blocking activity in anesthetized dogs: antagonism (Inhibition %) of isoprenaline-induced responses. Format: in vivo, dog. Particulars: 300 μg/kg i.v., 10 minutes after; for Inhibition (%) dBP (antagonism to the depression of diastolic blood pressure induced by isoprenaline) / Inhibition (%) HR (antagonism to the increase in heart rate induced by isoprenaline): isoprenaline 1 μg/kg i.v.; for Inhibition (%) AR (antagonism to the depression by isoprenaline in increase of air-way resistance induced by histamine): isoprenaline 1 μg/kg, histamine 5 μg/kg i.v. The procedure: The β-adrenergic blocking activity of the compounds of this invention was determined as follows:
Male hybrid adult dogs, weighing 10 to 16 kg, were anesthesized with sodium pentobarbital administered intravenously at a level of 30 mg/kg of body weight, and a cannula was inserted into the trachea of each of the anesthesized dogs. In order to avoid blood coagulation, heparin was administered intravenously at a level of 1000 units and thereafter a cannula was inserted into the right femoral artery. The experiments were conducted under artificial respiration at a rate of 20 ml/kg, 18 r.p.m.
The above parameters were continuously recorded on a polygraph (8S 28 Type, tradename of Sanei Sokki Co., Japan). During the experiment, gallamine was administered intravenously at a dosage of 3 mg/kg at one-hour intervals to avoid fluctuation of air-way resistance.
The β-adrenergic blocking activity of each of the test compounds was evaluated in terms of antagonism (Inhibition %) to the depression at the diastolic blood pressure (dBP) and to the increase in the heart rate induced by the intravenous administration of isoprenaline (1 μg/kg) and in terms of antagonism (Inhibition %) to the depression by isoprenaline in increase of air-way resistance which was induced by intravenous administration of histamine (5 μg/kg). In this case, histamine was administered 45 seconds after the administration of isoprenaline.

Data set [1] in a line: acute toxicity (LD50) by intravenous and oral administration. As to conditions: rat, in vivo, fasted 12 hours. How it is done:
Further, the acute toxicity of the compounds of the present invention having the formula (I) was determined by intravenous administration (i.v.) and oral administration (p.o.) in 5 to 6 groups of […] (dd strain; body weight, 18 to 22 g; 10 rats in each group) which have been fasted for 12 hours prior to the test.

Where [2] appears, read: iv, male rats, i.v., read-out: LD50 i.v.
[3] abbreviates: po, male rats, p.o., read-out: LD50 p.o.

As for `CC(=O)Nc1ccc2c(c1OCC(O)CNC(C)C)CCC(=O)N2` (centres unmarked) [compound 1], in the data set with β-adrenoreceptor, the “Inhibition (%) dBP (antagonism to the depression of diastolic blood pressure induced by isoprenaline)” value (shortened to “Inhibition (%) dBP”) was found to be 17.8%, the “Inhibition (%) HR (antagonism to the increase in heart rate induced by isoprenaline)” value stood at 25.3% and the “Inhibition (%) AR (antagonism to the depression by isoprenaline in increase of air-way resistance induced by histamine)” value is given as 11.3%.
Take `COc1ccc(CCNCC(O)COc2ccc(NC(C)=O)c3c2CCC(=O)N3)cc1OC` (centres unmarked) [compound 2]: in the data set with β-adrenoreceptor, the “Inhibition (%) dBP” value came out at 25.5%. Also, the “Inhibition (%) HR (antagonism to the increase in heart rate induced by isoprenaline)” value in the data set with β-adrenoreceptor is 30.2%. The “Inhibition (%) AR (antagonism to the depression by isoprenaline in increase of air-way resistance induced by histamine)” value in the data set on β-adrenoreceptor worked out at 10.8%. Moreover, the 50% lethal dose (LD50) in data set [1] (iv, female rats, i.v., read-out: LD50 i.v.) amounted to 142 mg/kg; in data set [1] (setting [2]) it was 158 mg/kg; in data set [1] (po, female rats, p.o., read-out: LD50 p.o.), 1230 mg/kg; in data set [1] (setting [3]), 1350 mg/kg.
Regarding `COc1ccc(OCCNCC(O)COc2ccc(NC(N)=O)c3c2CCC(=O)N3)cc1` (centres unmarked) [compound 3], in the data set on β-adrenoreceptor, the “Inhibition (%) dBP” value came out at 31.8%, the “Inhibition (%) HR (antagonism to the increase in heart rate induced by isoprenaline)” value is 39.6% and the “Inhibition (%) AR (antagonism to the depression by isoprenaline in increase of air-way resistance induced by histamine)” value was determined as 14.7%. Further, in data set [1] (setting [2]), the LD50 was found to be 156 mg/kg. Also, the LD50 in data set [1] (setting [3]) amounted to 1340 mg/kg.
Taken in the same sequence, the figures for `CCOC(=O)Nc1ccc(OCC(O)CNCCOc2ccc(C(N)=O)cc2)c2c1NC(=O)CC2` (centres unmarked) [compound 4] were 3.4%, 47.3%, 2.5%, 145 mg/kg and 1210 mg/kg.
`CC(NCC(O)COc1ccc(NC(=O)C2CCCCC2)c2c1CCC(=O)N2)c1ccccc1` (centres unmarked) [compound 5]: in the data set with β-adrenoreceptor, the “Inhibition (%) dBP” value was determined as 42.4%, the “Inhibition (%) HR (antagonism to the increase in heart rate induced by isoprenaline)” value is on record as 53.3% and the “Inhibition (%) AR (antagonism to the depression by isoprenaline in increase of air-way resistance induced by histamine)” value came out at 23.2%.
As for `COc1ccc(CCNCC(O)COc2c(NC(C)=O)ccc3c2CCC(=O)N3)cc1OC` (centres unmarked) [compound 6], in the data set with β-adrenoreceptor, the “Inhibition (%) dBP” value is given as 11.3%, the “Inhibition (%) HR (antagonism to the increase in heart rate induced by isoprenaline)” value was found to be 37.2% and the “Inhibition (%) AR (antagonism to the depression by isoprenaline in increase of air-way resistance induced by histamine)” value stood at 12.6%. Also, in data set [1] (setting [2]), the LD50 was determined as 160 mg/kg. Moreover, the LD50 in data set [1] (setting [3]) was found to be 1380 mg/kg.
Taken in the same sequence, the figures for `Cc1ccc(S(=O)(=O)Nc2ccc(OCC(O)CNCCOc3ccc(C(N)=O)cc3)c3c2NC(=O)CC3)cc1` (centres unmarked) [compound 7] were 11.4%, 26.8%, 10.2%, 115 mg/kg and 1120 mg/kg.
Turning to `Cc1ccccc1N1CCN(CC(O)COc2ccc(NS(C)(=O)=O)c3c2CCC(=O)N3)CC1` (centres unmarked) [compound 8], in the data set with β-adrenoreceptor, the “Inhibition (%) dBP” value was 6.4%, the “Inhibition (%) HR (antagonism to the increase in heart rate induced by isoprenaline)” value was 21.0% and the “Inhibition (%) AR (antagonism to the depression by isoprenaline in increase of air-way resistance induced by histamine)” value is recorded as 7.1%.
Taken in the same sequence, the figures for `NC(=O)Nc1ccc(OCC(O)CN2CCN(c3ccccc3Cl)CC2)c2c1NC(=O)CC2` (centres unmarked) [compound 9] were 15.3%, 23.6% and 8.9%.
In the case of `COc1ccccc1N1CCN(CC(O)COc2ccc(NC(C)=O)c3c2CCC(=O)N3)CC1` (centres unmarked) [compound 10], in the data set on β-adrenoreceptor, the “Inhibition (%) dBP” value is listed as 11.6%, the “Inhibition (%) HR (antagonism to the increase in heart rate induced by isoprenaline)” value turned out to be 21.7% and the “Inhibition (%) AR (antagonism to the depression by isoprenaline in increase of air-way resistance induced by histamine)” value was 6.2%. Besides, in data set [1] (setting [2]), the LD50 was 125 mg/kg. Moreover, the LD50 in data set [1] (setting [3]) worked out at 1170 mg/kg.
`CC(C)(C)NCC(O)COc1cccc2c1CCC(=O)N2` (centres unmarked) [compound 11, 5-(3-t-butylamino-2-hydroxy)propoxy-3,4-dihydrocarbostyril hydrochloride, reference compound]: in the data set with β-adrenoreceptor, the “Inhibition (%) dBP” value was 100%, the “Inhibition (%) HR (antagonism to the increase in heart rate induced by isoprenaline)” value is 100% and the “Inhibition (%) AR (antagonism to the depression by isoprenaline in increase of air-way resistance induced by histamine)” value was determined as 100%.
On to `COc1ccc(CCNCC(O)COc2cccc3c2CCC(=O)N3)cc1OC` (centres unmarked) [compound 13, 5-(3,4-dimethoxyphenethylamino-2-hydroxy)propoxy-3,4-dihydrocarbostyril hydrochloride, reference compound], for which, in the data set with β-adrenoreceptor, the “Inhibition (%) dBP” value worked out at 65.6%, the “Inhibition (%) HR (antagonism to the increase in heart rate induced by isoprenaline)” value amounted to 87.2% and the “Inhibition (%) AR (antagonism to the depression by isoprenaline in increase of air-way resistance induced by histamine)” value was found to be 79.1%.

The term LD50 denotes the dose expected to kill half of the subjects tested.
